Laboratory results as given in the kinase profiling compilation of Christmann-Franck et al. (2016).

Key:
Test in all cases: KINOMEscan competition binding
ABL2 (human) = ABL2 (human) (UniProt P42684)
ACVRL1 (human) = ACVRL1 (human) (UniProt P37023)
AKT1 (human) = AKT1 (human) (UniProt P31749)
CAMK2B (human) = CAMK2B (human) (UniProt Q13554)
CDKL1 (human) = CDKL1 (human) (UniProt Q00532)
CSNK2A2 (human) = CSNK2A2 (human) (UniProt P19784)
DAPK3 (human) = DAPK3 (human) (UniProt O43293)
[1] = tested on: EGFR (human), P00533 [G719C]
[2] = tested on: EGFR (human), P00533 [G719S]
EIF2AK1 (human) = EIF2AK1 (human) (UniProt Q9BQI3)
EPHA1 (human) = EPHA1 (human) (UniProt P21709)
EPHA7 (human) = EPHA7 (human) (UniProt Q15375)
EPHA8 (human) = EPHA8 (human) (UniProt P29322)
EPHB1 (human) = EPHB1 (human) (UniProt P54762)
FER (human) = FER (human) (UniProt P16591)
FES (human) = FES (human) (UniProt P07332)
[3] = tested on: FLT3 (human), P36888 [ITD]
GAK (human) = GAK (human) (UniProt O14976)
GRK4 (human) = GRK4 (human) (UniProt P32298)
GRK7 (human) = GRK7 (human) (UniProt Q8WTQ7)
HCK (human) = HCK (human) (UniProt P08631)
INSR (human) = INSR (human) (UniProt P06213)
MAP3K4 (human) = MAP3K4 (human) (UniProt Q9Y6R4)
MAP4K1 (human) = MAP4K1 (human) (UniProt Q92918)
MAPK13 (human) = MAPK13 (human) (UniProt O15264)
MAPK7 (human) = MAPK7 (human) (UniProt Q13164)
MAPKAPK5 (human) = MAPKAPK5 (human) (UniProt Q8IW41)
MELK (human) = MELK (human) (UniProt Q14680)
[4] = tested on: MET (human), P08581 [M1250T]
MKNK2 (human) = MKNK2 (human) (UniProt Q9HBH9)
MLTK (human) = MLTK (human) (UniProt Q9NYL2)
NEK3 (human) = NEK3 (human) (UniProt P51956)
NEK7 (human) = NEK7 (human) (UniProt Q8TDX7)
PRKCD (human) = PRKCD (human) (UniProt Q05655)
PRKG2 (human) = PRKG2 (human) (UniProt Q13237)
[5] = tested on: RET (human), P07949 [V804M]
RPS6KA3 KD1 (human) = RPS6KA3 KD1 (human) (UniProt P51812)
STK32A (human) = STK32A (human) (UniProt Q8WU08)
STK35 (human) = STK35 (human) (UniProt Q8TDR2)
TGFBR2 (human) = TGFBR2 (human) (UniProt P37173)
TNK1 (human) = TNK1 (human) (UniProt Q13470)
VRK2 (human) = VRK2 (human) (UniProt Q86Y07)
YES1 (human) = YES1 (human) (UniProt P07947)

NEK3 (human), sequence (P51956 whole entry, looked up): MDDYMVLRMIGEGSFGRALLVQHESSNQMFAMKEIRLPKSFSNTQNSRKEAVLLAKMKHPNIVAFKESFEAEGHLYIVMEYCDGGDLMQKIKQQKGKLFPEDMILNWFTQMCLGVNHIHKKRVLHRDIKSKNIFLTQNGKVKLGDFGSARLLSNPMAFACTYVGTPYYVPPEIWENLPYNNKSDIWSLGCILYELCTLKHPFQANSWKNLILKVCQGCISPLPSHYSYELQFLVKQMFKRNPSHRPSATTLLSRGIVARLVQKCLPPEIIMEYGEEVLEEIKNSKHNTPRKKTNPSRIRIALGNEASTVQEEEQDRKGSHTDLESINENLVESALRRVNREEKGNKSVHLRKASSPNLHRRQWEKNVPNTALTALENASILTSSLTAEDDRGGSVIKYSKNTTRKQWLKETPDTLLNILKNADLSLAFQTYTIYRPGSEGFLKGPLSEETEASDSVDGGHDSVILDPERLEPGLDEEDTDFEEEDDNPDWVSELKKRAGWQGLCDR
MAPK13 (human), sequence (O15264 whole entry, looked up): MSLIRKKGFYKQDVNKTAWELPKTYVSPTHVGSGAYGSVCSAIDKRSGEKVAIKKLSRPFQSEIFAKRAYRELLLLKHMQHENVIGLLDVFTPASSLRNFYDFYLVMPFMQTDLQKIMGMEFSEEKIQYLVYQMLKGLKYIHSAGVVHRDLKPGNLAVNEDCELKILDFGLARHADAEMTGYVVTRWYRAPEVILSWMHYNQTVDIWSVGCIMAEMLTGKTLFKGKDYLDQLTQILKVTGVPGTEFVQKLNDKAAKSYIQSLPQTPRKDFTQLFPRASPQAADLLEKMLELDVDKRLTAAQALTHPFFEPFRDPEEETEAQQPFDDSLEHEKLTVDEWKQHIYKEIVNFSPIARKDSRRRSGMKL
GAK (human), sequence (O14976 whole entry, looked up): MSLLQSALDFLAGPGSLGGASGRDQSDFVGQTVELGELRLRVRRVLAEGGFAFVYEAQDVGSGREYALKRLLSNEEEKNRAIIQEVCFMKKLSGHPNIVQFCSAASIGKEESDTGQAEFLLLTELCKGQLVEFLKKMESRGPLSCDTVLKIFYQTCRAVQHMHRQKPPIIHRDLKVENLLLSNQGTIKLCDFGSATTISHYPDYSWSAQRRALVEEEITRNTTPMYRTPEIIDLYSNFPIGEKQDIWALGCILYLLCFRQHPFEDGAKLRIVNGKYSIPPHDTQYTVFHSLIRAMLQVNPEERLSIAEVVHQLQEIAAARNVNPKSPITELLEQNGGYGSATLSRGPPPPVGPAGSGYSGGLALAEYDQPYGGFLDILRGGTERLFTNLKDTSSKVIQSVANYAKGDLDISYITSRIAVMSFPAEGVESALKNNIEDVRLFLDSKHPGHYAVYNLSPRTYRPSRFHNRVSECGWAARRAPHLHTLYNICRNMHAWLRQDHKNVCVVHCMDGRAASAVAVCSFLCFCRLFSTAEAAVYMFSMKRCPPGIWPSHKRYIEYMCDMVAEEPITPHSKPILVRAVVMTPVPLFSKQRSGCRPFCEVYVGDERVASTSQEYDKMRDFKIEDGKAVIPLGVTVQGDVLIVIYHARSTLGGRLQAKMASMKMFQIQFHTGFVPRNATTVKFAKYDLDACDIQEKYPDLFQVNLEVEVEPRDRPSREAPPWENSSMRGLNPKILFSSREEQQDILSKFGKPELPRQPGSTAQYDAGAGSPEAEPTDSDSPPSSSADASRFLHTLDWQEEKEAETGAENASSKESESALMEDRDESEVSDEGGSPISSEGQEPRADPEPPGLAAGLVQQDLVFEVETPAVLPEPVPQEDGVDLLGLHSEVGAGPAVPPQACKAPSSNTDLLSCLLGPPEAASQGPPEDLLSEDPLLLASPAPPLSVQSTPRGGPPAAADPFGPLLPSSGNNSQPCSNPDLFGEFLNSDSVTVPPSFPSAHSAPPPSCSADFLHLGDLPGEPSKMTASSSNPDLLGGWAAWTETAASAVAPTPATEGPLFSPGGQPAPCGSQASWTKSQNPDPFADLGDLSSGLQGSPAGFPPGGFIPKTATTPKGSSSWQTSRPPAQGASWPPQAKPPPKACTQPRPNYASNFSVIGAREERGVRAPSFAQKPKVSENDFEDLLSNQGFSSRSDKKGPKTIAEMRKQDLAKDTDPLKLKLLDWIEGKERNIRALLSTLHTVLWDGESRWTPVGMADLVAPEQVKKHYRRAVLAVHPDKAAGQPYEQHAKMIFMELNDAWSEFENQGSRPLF
MAP3K4 (human), sequence (Q9Y6R4 whole entry, looked up): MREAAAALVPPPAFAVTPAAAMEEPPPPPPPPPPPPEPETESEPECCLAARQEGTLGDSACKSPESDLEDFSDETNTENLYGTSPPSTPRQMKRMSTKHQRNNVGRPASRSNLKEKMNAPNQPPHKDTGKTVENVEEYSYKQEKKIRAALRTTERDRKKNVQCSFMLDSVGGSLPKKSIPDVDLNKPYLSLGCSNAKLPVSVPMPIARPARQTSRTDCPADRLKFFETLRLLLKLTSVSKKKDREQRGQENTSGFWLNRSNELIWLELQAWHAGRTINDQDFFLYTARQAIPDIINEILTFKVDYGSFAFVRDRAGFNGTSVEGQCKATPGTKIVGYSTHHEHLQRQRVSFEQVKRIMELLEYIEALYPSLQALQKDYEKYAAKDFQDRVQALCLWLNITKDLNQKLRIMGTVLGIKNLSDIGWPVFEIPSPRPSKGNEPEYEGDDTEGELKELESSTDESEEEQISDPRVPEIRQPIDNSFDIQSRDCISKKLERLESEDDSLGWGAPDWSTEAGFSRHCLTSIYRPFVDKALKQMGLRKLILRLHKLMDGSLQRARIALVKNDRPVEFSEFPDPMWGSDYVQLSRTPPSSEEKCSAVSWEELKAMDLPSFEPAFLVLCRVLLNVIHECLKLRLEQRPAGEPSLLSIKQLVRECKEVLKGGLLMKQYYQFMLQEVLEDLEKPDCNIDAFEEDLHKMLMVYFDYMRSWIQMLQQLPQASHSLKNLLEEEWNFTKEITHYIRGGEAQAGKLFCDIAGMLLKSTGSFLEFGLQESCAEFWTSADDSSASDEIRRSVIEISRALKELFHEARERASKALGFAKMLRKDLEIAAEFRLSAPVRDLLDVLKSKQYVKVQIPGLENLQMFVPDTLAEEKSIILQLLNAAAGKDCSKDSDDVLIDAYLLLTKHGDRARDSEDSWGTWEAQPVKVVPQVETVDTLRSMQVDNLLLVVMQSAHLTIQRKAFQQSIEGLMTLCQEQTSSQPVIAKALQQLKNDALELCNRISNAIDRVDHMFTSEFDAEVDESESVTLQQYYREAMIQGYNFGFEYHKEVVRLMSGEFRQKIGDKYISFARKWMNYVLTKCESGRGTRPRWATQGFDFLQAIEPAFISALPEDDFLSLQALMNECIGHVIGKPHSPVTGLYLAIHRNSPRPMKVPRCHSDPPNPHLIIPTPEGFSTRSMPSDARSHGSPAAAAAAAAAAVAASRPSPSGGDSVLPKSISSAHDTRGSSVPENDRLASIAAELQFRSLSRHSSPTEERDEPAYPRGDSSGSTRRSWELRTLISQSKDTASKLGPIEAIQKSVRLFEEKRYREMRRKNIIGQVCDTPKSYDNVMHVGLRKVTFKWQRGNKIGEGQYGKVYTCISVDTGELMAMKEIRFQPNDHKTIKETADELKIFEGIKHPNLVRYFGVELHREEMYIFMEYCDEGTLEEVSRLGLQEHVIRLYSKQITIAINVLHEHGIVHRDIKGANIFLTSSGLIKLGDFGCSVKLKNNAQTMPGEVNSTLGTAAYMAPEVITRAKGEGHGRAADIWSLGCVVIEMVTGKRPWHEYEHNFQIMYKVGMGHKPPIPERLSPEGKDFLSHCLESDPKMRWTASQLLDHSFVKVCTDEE
AKT1 (human), sequence (P31749 whole entry, looked up): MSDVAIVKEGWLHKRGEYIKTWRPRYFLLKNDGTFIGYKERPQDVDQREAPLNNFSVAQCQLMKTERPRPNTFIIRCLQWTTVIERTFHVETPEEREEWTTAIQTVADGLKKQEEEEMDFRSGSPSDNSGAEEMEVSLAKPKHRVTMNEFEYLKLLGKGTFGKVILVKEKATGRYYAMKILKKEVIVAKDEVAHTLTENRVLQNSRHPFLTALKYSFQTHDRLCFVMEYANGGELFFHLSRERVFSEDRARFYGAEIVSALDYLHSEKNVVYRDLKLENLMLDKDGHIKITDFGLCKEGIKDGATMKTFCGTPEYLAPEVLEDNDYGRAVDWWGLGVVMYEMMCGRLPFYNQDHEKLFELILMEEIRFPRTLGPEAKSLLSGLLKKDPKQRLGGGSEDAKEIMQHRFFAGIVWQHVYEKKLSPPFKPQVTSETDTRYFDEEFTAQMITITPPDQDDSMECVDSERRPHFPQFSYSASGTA
ACVRL1 (human), sequence (P37023 whole entry, looked up): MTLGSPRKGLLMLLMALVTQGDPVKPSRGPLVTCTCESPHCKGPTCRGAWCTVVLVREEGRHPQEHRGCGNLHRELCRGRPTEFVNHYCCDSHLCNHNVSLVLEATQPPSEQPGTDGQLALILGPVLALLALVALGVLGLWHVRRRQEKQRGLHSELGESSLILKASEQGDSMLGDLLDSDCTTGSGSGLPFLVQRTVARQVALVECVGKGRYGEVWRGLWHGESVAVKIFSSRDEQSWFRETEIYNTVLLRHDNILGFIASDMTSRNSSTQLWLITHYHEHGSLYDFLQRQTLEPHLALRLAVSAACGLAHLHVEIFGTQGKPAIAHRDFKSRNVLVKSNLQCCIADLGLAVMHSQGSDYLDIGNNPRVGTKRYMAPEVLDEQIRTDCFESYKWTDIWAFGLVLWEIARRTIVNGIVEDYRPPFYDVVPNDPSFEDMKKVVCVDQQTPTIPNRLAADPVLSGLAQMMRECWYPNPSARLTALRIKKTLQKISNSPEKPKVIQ
NEK7 (human), sequence (Q8TDX7 whole entry, looked up): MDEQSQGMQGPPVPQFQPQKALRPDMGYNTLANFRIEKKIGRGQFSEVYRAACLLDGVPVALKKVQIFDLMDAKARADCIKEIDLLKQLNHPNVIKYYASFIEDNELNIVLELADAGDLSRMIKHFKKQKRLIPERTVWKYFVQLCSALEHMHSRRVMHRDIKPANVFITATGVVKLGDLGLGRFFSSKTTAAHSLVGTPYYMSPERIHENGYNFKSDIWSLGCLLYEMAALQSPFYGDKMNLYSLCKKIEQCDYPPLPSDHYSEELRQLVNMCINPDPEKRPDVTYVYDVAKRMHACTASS

SMILES: Cc1ccc(NC(=O)c2ccc(NC(=O)/C=C/CN(C)C)cc2)cc1Nc1nccc(-c2cccnc2)n1
- kinase still bound, per cent of control (ABL2 (human); compound 10.0 µM): 44%
- kinase still bound, per cent of control (ACVRL1 (human); compound 10.0 µM): 100%
- kinase still bound, per cent of control (AKT1 (human); compound 10.0 µM): 100%
- kinase still bound, per cent of control (CAMK2B (human); compound 10.0 µM): 100%
- kinase still bound, per cent of control (CDKL1 (human); compound 10.0 µM): 100%
- kinase still bound, per cent of control (CSNK2A2 (human); compound 10.0 µM): 21%
- kinase still bound, per cent of control (DAPK3 (human); compound 10.0 µM): 75%
- kinase still bound, per cent of control ([1]; compound 10.0 µM): 45%
- kinase still bound, per cent of control ([2]; compound 10.0 µM): 61%
- kinase still bound, per cent of control (EIF2AK1 (human); compound 10.0 µM): 94%
- kinase still bound, per cent of control (EPHA1 (human); compound 10.0 µM): 91%
- kinase still bound, per cent of control (EPHA7 (human); compound 10.0 µM): 99%
- kinase still bound, per cent of control (EPHA8 (human); compound 10.0 µM): 81%
- kinase still bound, per cent of control (EPHB1 (human); compound 10.0 µM): 100%
- kinase still bound, per cent of control (FER (human); compound 10.0 µM): 90%
- kinase still bound, per cent of control (FES (human); compound 10.0 µM): 100%
- kinase still bound, per cent of control ([3]; compound 10.0 µM): 46%
- kinase still bound, per cent of control (GAK (human); compound 10.0 µM): 8.6%
- kinase still bound, per cent of control (GRK4 (human); compound 10.0 µM): 88%
- kinase still bound, per cent of control (GRK7 (human); compound 10.0 µM): 82%
- kinase still bound, per cent of control (HCK (human); compound 10.0 µM): 89%
- kinase still bound, per cent of control (INSR (human); compound 10.0 µM): 93%
- kinase still bound, per cent of control (MAP3K4 (human); compound 10.0 µM): 100%
- kinase still bound, per cent of control (MAP4K1 (human); compound 10.0 µM): 90%
- kinase still bound, per cent of control (MAPK13 (human); compound 10.0 µM): 87%
- kinase still bound, per cent of control (MAPK7 (human); compound 10.0 µM): 100%
- kinase still bound, per cent of control (MAPKAPK5 (human); compound 10.0 µM): 74%
- kinase still bound, per cent of control (MELK (human); compound 10.0 µM): 12%
- kinase still bound, per cent of control ([4]; compound 10.0 µM): 100%
- kinase still bound, per cent of control (MKNK2 (human); compound 10.0 µM): 4.2%
- kinase still bound, per cent of control (MLTK (human); compound 10.0 µM): 78%
- kinase still bound, per cent of control (NEK3 (human); compound 10.0 µM): 99%
- kinase still bound, per cent of control (NEK7 (human); compound 10.0 µM): 20%
- kinase still bound, per cent of control (PRKCD (human); compound 10.0 µM): 96%
- kinase still bound, per cent of control (PRKG2 (human); compound 10.0 µM): 74%
- kinase still bound, per cent of control ([5]; compound 10.0 µM): 100%
- kinase still bound, per cent of control (RPS6KA3 KD1 (human); compound 10.0 µM): 52%
- kinase still bound, per cent of control (STK32A (human); compound 10.0 µM): 50%
- kinase still bound, per cent of control (STK35 (human); compound 10.0 µM): 82%
- kinase still bound, per cent of control (TGFBR2 (human); compound 10.0 µM): 100%
- kinase still bound, per cent of control (TNK1 (human); compound 10.0 µM): 8.7%
- kinase still bound, per cent of control (VRK2 (human); compound 10.0 µM): 85%
- kinase still bound, per cent of control (YES1 (human); compound 10.0 µM): 100%

SMILES: CN(C)C/C=C/C(=O)Nc1cccc(C(=O)Nc2ccc(Nc3nccc(-c4c(-c5ccccc5)nn5ccccc45)n3)cc2)c1
- kinase still bound, per cent of control (ABL2 (human); compound 1.0 µM): 21%
- kinase still bound, per cent of control (ACVRL1 (human); compound 1.0 µM): 22%
- kinase still bound, per cent of control (AKT1 (human); compound 1.0 µM): 100%
- kinase still bound, per cent of control (CAMK2B (human); compound 1.0 µM): 100%
- kinase still bound, per cent of control (CDKL1 (human); compound 1.0 µM): 100%
- kinase still bound, per cent of control (CSNK2A2 (human); compound 1.0 µM): 100%
- kinase still bound, per cent of control (DAPK3 (human); compound 1.0 µM): 93%
- kinase still bound, per cent of control ([1]; compound 1.0 µM): 0.55%
- kinase still bound, per cent of control ([2]; compound 1.0 µM): 1.8%
- kinase still bound, per cent of control (EIF2AK1 (human); compound 1.0 µM): 76%
- kinase still bound, per cent of control (EPHA1 (human); compound 1.0 µM): 38%
- kinase still bound, per cent of control (EPHA7 (human); compound 1.0 µM): 100%
- kinase still bound, per cent of control (EPHA8 (human); compound 1.0 µM): 39%
- kinase still bound, per cent of control (EPHB1 (human); compound 1.0 µM): 84%
- kinase still bound, per cent of control (FER (human); compound 1.0 µM): 87%
- kinase still bound, per cent of control (FES (human); compound 1.0 µM): 100%
- kinase still bound, per cent of control ([3]; compound 1.0 µM): 11%
- kinase still bound, per cent of control (GAK (human); compound 1.0 µM): 2.4%
- kinase still bound, per cent of control (GRK4 (human); compound 1.0 µM): 93%
- kinase still bound, per cent of control (GRK7 (human); compound 1.0 µM): 86%
- kinase still bound, per cent of control (HCK (human); compound 1.0 µM): 23%
- kinase still bound, per cent of control (INSR (human); compound 1.0 µM): 100%
- kinase still bound, per cent of control (MAP3K4 (human); compound 1.0 µM): 80%
- kinase still bound, per cent of control (MAP4K1 (human); compound 1.0 µM): 69%
- kinase still bound, per cent of control (MAPK13 (human); compound 1.0 µM): 100%
- kinase still bound, per cent of control (MAPK7 (human); compound 1.0 µM): 100%
- kinase still bound, per cent of control (MAPKAPK5 (human); compound 1.0 µM): 100%
- kinase still bound, per cent of control (MELK (human); compound 1.0 µM): 100%
- kinase still bound, per cent of control ([4]; compound 1.0 µM): 70%
- kinase still bound, per cent of control (MKNK2 (human); compound 1.0 µM): 100%
- kinase still bound, per cent of control (MLTK (human); compound 1.0 µM): 11%
- kinase still bound, per cent of control (NEK3 (human); compound 1.0 µM): 99%
- kinase still bound, per cent of control (NEK7 (human); compound 1.0 µM): 100%
- kinase still bound, per cent of control (PRKCD (human); compound 1.0 µM): 100%
- kinase still bound, per cent of control (PRKG2 (human); compound 1.0 µM): 83%
- kinase still bound, per cent of control ([5]; compound 1.0 µM): 100%
- kinase still bound, per cent of control (RPS6KA3 KD1 (human); compound 1.0 µM): 50%
- kinase still bound, per cent of control (STK32A (human); compound 1.0 µM): 35%
- kinase still bound, per cent of control (STK35 (human); compound 1.0 µM): 94%
- kinase still bound, per cent of control (TGFBR2 (human); compound 1.0 µM): 10%
- kinase still bound, per cent of control (TNK1 (human); compound 1.0 µM): 100%
- kinase still bound, per cent of control (VRK2 (human); compound 1.0 µM): 85%
- kinase still bound, per cent of control (YES1 (human); compound 1.0 µM): 12%
